This passage reports IC50 results from patent US7022856B2, “Carboline derivatives” (LIlly Icos LLC., priority 2001, dated 2006).

The test deals with T1, human recombinant PDE5 (Homo sapiens, UniProt O76074).
T1 construct: host or cells: Saccharomyces cerevisiae strain BJ2-54 (ATCC 74465)
As to the kind of experiment: cGMP-PDE inhibition, one-step assay with human recombinant PDE5. It counts as biochemical. To be noted: 0.15 μM 8-[H3]-cGMP, 30 min. The procedure: The compounds of structural formula (I) were tested for an ability to inhibit PDE5. The ability of a compound to inhibit PDE5 activity is related to the IC50 value for the compound, i.e., the concentration of inhibitor required for 50% inhibition of enzyme activity. The IC50 value for compounds pounds of structural formula (I) were determined using recombinant human PDE5.
Recombinant production of human PDE1B, PDE2, PDE4A, PDE4B, PDE4C, PDE4D, PDE5, and PDE7 was carried out similarly to that described in Example 7 of U.S. Pat. No. 5,702,936, incorporated herein by reference, except that the yeast transformation vector employed, which is derived from the basic ADH2 plasmid described in Price et al., Methods in Enzymology, 185, pp. 308–318 (1990), incorporated yeast ADH2 promoter and terminator sequences and the Saccharomyces cerevisiae host was the protease-deficient strain BJ2-54 deposited on Aug. 31, 1998 with the American Type Culture Collection, Manassas, Va., under accession number ATCC 74465. Transformed host cells were grown in 2×SC-leu medium, pH 6.2, with trace metals, and vitamins. After 24 hours, YEP medium-containing glycerol was added to a final concentration of 2×YET/3% glycerol. Approxiately 24 hr later, cells were harvested, washed, and stored at −70° C. […]
Cell pellets (29 g) were thawed on ice with an equal volume of Lysis Buffer (25 mM Tris HCl, pH 8, 5 mM MgCl2, 0.25 mM DTT, 1 mM benzamidine, and 10 μM ZnSO4). Cells were lysed in a Microfluidizer® (Microfluidics Corp.) using nitrogen at 20,000 psi. The lysate was centrifuged and filtered through 0.45 μm disposable filters. The filtrate was applied to a 150 mL column of Q SEPHAROSE® Fast-Flow (Pharmacia). The column was washed with 1.5 volumes of Buffer A (20 mM Bis-Tris Propane, pH 6.8, 1 mM MgCl2, 0.25 mM DTT, 10 μM ZnSO4) and eluted with a step gradient of 125 mM NaCl in Buffer A followed by a linear gradient of 125–1000 mM NaCl in Buffer A. Active fractions from the linear gradient were applied to a 180 mL hydroxyapatite column in Buffer B (20 mM Bis-Tris Propane (pH 6.8), 1 mM MgCl2, 0.25 mM DTT, 10 μM ZnSO4, and 250 mM KCl). After loading, the column was washed with 2 volumes of Buffer B and eluted with a linear gradient of 0–125 mM potassium phosphate in Buffer B. Active fractions were pooled, precipitated with 60% ammonium sulfate, and resuspended in Buffer C (20 mM Bis-Tris Propane, pH 6.8, 125 mM NaCl, 0.5 mM DTT, and 10 μM ZnSO4). The pool was applied to a 140 mL column of SEPHACRYL® S-300 HR and eluted with Buffer C. Active fractions were diluted to 50% glycerol and stored at −20° C.
cGMP-PDE activity of compounds of the present invention was measured using a one-step assay adapted from Wells et al., Biochim. Biophys. Acta, 384, 430 (1975). The reaction medium contained 50 mM Tris-HCl, pH 7.5, 5 mM magnesium acetate. 250 μg/ml 5′-Nucleotidase, 1 mM EGTA, and 0.15 μM 8-[H^3]-cGMP. Unless otherwise indicated, the enzyme used was a human recombinant PDE5 (ICOS Corp., Bothell, Wash.).
Compounds of the invention were dissolved in DMSO finally present at 2% in the assay.
Take `O=C(c1cc2cccc(Br)c2s1)N1CCc2c([nH]c3ccccc23)C1c1ccc2c(c1)OCO2` (stereo not drawn) [Example 32]: the IC50 – broadly, the midpoint of a concentration-inhibition curve – stood at 0.48 µM. As for `c1cncc(-c2cc(N3CCc4c([nH]c5ccccc45)C3c3ccc4c(c3)CCO4)ncn2)c1` (stereo not drawn) [Example 77], the IC50 is 0.004 µM.

On to `O=C(c1ccc(CN2CCOCC2)s1)N1CCc2c([nH]c3ccccc23)C1c1ccc2c(c1)OCO2` (stereo not drawn) [Example 39], for which the IC50 was 0.4 µM. Under `COCc1ccc(C(=O)N2CCc3c([nH]c4ccccc34)C2c2ccc3c(c2)OCO3)s1` (stereo not drawn) [Example 40] stands 0.32 µM; under `COC(=O)CC(=O)Nc1ccc2sc(C(=O)N3CCc4c([nH]c5ccccc45)C3c3ccc4c(c3)OCO4)cc2c1` (stereo not drawn) [Example 30], 0.06 µM; under `Cc1nccn1-c1ccnc(N2CCc3c([nH]c4ccccc34)C2c2ccc3c(c2)CCO3)n1` (stereo not drawn) [Example 78], 0.06 µM. Under `CNc1ccc(C(=O)N2CCc3c([nH]c4ccccc34)C2c2ccc3c(c2)OCO3)cc1` (stereo not drawn) [Example 5, 1-(1-Benzo[1,3]dioxol-5-yl-1,3,4,9-tetrahydro-β-carbolin-2-yl)-1-(4-methylaminophenyl)methanone] stands 0.2 µM; under `COc1cc2nc(N3CCc4c([nH]c5ccccc45)C3c3ccc4c(c3)OCO4)[nH]c(=O)c2cc1OC` (stereo not drawn) [Example 46, 2-(1-Benzo[1,3]dioxol-5-yl-1,3,4,9-tetrahydro-β-carbolin-2-yl) -6,7-dimethoxy-3H-quinazolin-4-one], 0.005 µM. Under `O=C(Cn1ccnc1)Nc1ccc2sc(C(=O)N3CCc4c([nH]c5ccccc45)C3c3ccc4c(c3)OCO4)cc2c1` (stereo not drawn) [Example 31] stands 0.04 µM; under `Nc1ccc2sc(C(=O)N3CCc4c([nH]c5ccccc45)C3c3ccc4c(c3)OCO4)cc2c1` (stereo not drawn) [Example 22], 0.08 µM. Consider `Cc1nccn1-c1nccc(N2CCc3c([nH]c4ccccc34)C2c2ccc3c(c2)CCO3)n1` (stereo not drawn) [Example 63], for which the IC50 came out at 0.04 µM. Under `O=C(c1ccsc1)N1CCc2c([nH]c3ccccc23)C1c1ccc2c(c1)OCO2` (stereo not drawn) [Example 26] stands 0.9 µM; under `c1cncc(-c2ccnc(N3CCc4c([nH]c5ccccc45)C3c3ccc4c(c3)CCO4)n2)c1` (stereo not drawn) [Example 59], 0.04 µM; under `O=C(c1cc2c([N+](=O)[O-])cccc2s1)N1CCc2c([nH]c3ccccc23)C1c1ccc2c(c1)OCO2` (stereo not drawn) [Example 33], 0.2 µM.

For the molecule `CN(C)CCOc1ccc(-c2cc(N3CCc4c([nH]c5ccccc45)C3c3ccc4c(c3)CCO4)ncn2)cc1` (stereo not drawn) [Example 82], the IC50 was 0.005 µM. Under `O=C(c1cc2cc([N+](=O)[O-])ccc2s1)N1CCc2c([nH]c3ccccc23)C1c1ccc2c(c1)OCO2` (stereo not drawn) [Example 21] stands 0.13 µM; under `COc1ccc2sc(C(=O)N3CCc4c([nH]c5ccccc45)C3c3ccc4c(c3)OCO4)cc2c1` (stereo not drawn) [Example 38], 0.03 µM. Under `COc1ccc(-c2cc(N3CCc4c([nH]c5ccccc45)C3c3ccc4c(c3)CCO4)ncn2)cc1` (stereo not drawn) [Example 79] stands 0.004 µM; under `COc1ccc2cc(C(=O)N3CCc4c([nH]c5ccccc45)C3c3ccc4c(c3)OCO4)sc2c1` (stereo not drawn) [Example 37], 0.04 µM; under `CN1CCN(c2nccc(N3CCc4c([nH]c5ccccc45)C3c3ccc4c(c3)OCO4)n2)CC1` (stereo not drawn) [Example 54], 0.56 µM. Under `Cc1nccn1-c1cc(N2CCc3c([nH]c4ccccc34)C2c2ccc3c(c2)CCO3)ncn1` (stereo not drawn) [Example 68] stands 0.02 µM; under `O=C(c1ccc([N+](=O)[O-])s1)N1CCc2c([nH]c3ccccc23)C1c1ccc2c(c1)OCO2` (stereo not drawn) [Example 34], 0.46 µM. On to `c1ccc(-c2cc(N3CCc4c([nH]c5ccccc45)C3c3ccc4c(c3)CCO4)ncn2)cc1` (stereo not drawn) [Example 75], for which the IC50 stood at 0.007 µM. On to `c1cnc(N2CCc3c([nH]c4ccccc34)C2c2ccc3c(c2)OCO3)nc1` (stereo not drawn) [Example 50], for which the IC50 was found to be 0.78 µM. Under `NC(=O)c1ccc(C(=O)N2CCc3c([nH]c4ccccc34)C2c2ccc3c(c2)OCO3)cc1` (stereo not drawn) [Example 7, 4-[1-(1-Benzo[1,3]dioxol-5-yl-1,3,4,9-tetrahydro-β-carbolin-2-yl)methanoyl]benzamide] stands 0.55 µM. As to `Nc1ccc(C(=O)N2CCc3c([nH]c4ccccc34)C2c2ccc3c(c2)OCO3)s1` (stereo not drawn) [Example 44], the IC50 worked out at 0.49 µM. Under `Clc1nc(N2CCc3c([nH]c4ccccc34)C2c2ccc3c(c2)OCO3)c2nc[nH]c2n1` (stereo not drawn) [Example 53] stands 0.07 µM; under `CC(=O)Nc1ccc2sc(C(=O)N3CCc4c([nH]c5ccccc45)C3c3ccc4c(c3)OCO4)cc2c1` (stereo not drawn) [Example 24], 0.03 µM. Under `O=C(Cc1csc2ccccc12)N1CCc2c([nH]c3ccccc23)C1c1ccc2c(c1)OCO2` (stereo not drawn) [Example 23, 2-Benzo[b]thiophen-3-yl-1-(1-benzo[1,3]dioxol-5-yl-1,3,4,9-tetrahydro-β-carbolin-2-yl)ethanone] stands 0.36 µM; under `Cc1ncn(-c2nccc(N3CCc4c([nH]c5ccccc45)C3c3ccc4c(c3)CCO4)n2)c1C` (stereo not drawn) [Example 73], 0.03 µM. For `c1coc(-c2nccc(N3CCc4c([nH]c5ccccc45)C3c3ccc4c(c3)CCO4)n2)c1` (stereo not drawn) [Example 67], the IC50 was determined as 0.07 µM. In the case of `O=C(CN1CCCCC1)Nc1ccc2sc(C(=O)N3CCc4c([nH]c5ccccc45)C3c3ccc4c(c3)OCO4)cc2c1` (stereo not drawn) [Example 29], the half-inhibitory concentration (IC50) is 0.3 µM. Under `O=C(/C=C/c1ccc(CCC(=O)N2CCc3c([nH]c4ccccc34)C2c2ccc3c(c2)OCO3)cc1)N1CCc2c([nH]c3ccccc23)C1c1ccc2c(c1)OCO2` (stereo not drawn) [Example 13b] stands 0.02 µM. Under `CN(C)CCOc1ccc(-c2ccnc(N3CCc4c([nH]c5ccccc45)C3c3ccc4c(c3)CCO4)n2)cc1` (stereo not drawn) [Example 70] stands 0.02 µM. Under `c1cncc(-c2nccc(N3CCc4c([nH]c5ccccc45)C3c3ccc4c(c3)CCO4)n2)c1` (stereo not drawn) [Example 69] stands 0.009 µM; under `Nc1ccccc1CCC(=O)N1CCc2c([nH]c3ccccc23)C1c1ccc2c(c1)OCO2` (stereo not drawn) [Example 9, 3-(2-Aminophenyl)-1-(1-benzo[1,3]dioxol-5-yl-1,3,4,9-tetrahydro-β-carbolin-2-yl)propan-1-one], 0.44 µM; under `c1csc(-c2nccc(N3CCc4c([nH]c5ccccc45)C3c3ccc4c(c3)OCO4)n2)c1` (stereo not drawn) [Example 56], 0.04 µM.

With `c1cncc(-c2nccc(N3CCc4c([nH]c5ccccc45)C3c3ccc4c(c3)CCO4)n2)c1` (stereo not drawn) [Example 61], the IC50 came out at 0.04 µM. Under `c1ccc2c3c([nH]c2c1)C(c1ccc2c(c1)CCO2)N(c1ccnc(-n2ccnc2)n1)CC3` (stereo not drawn) [Example 57] stands 0.06 µM. As to `COc1ccc(-c2ccnc(N3CCc4c([nH]c5ccccc45)C3c3ccc4c(c3)OCO4)n2)cc1` (stereo not drawn) [Example 49], the IC50 turned out to be 0.01 µM.

For the molecule `CN(C)CC(=O)Nc1ccc(C(=O)N2CCc3c([nH]c4ccccc34)C2c2ccc3c(c2)OCO3)o1` (stereo not drawn) [Example 41], the IC50 is 0.24 µM. Under `O=C(CCc1ccccc1)N1CCc2c([nH]c3ccccc23)C1c1ccc2c(c1)OCO2` (stereo not drawn) [Example 11, 1-(1-Benzo[1,3]dioxol-5-yl-1,3,4,9-tetrahydro-β-carbolin-2-yl)-3-phenylpropan-1-one] stands 0.44 µM; under `O=C(C#Cc1ccccc1)N1CCc2c([nH]c3ccccc23)C1c1ccc2c(c1)OCO2` (stereo not drawn) [Example 8, 1-(1-Benzo[1,3]dioxol-5-yl-1,3,4,9-tetrahydro-β-carbolin-2-yl)-3-phenylpropynone], 0.19 µM. Regarding `O=C(c1cc2ccccc2s1)N1CCc2c([nH]c3ccccc23)C1c1ccc2c(c1)OCO2` (stereo not drawn) [Example 84], the IC50 came to 0.309 µM. Under `c1ccc(-c2ccnc(N3CCc4c([nH]c5ccccc45)C3c3ccccc3)n2)cc1` (stereo not drawn) [Example 52] stands 0.29 µM.
